Like-named read-outs stand apart in the source and are kept apart here.
Assays:
[1] = test system: experimental asthma; experiment: Inhibitory effect on experimental asthma in rats; format: in vivo, rat (male Wistar); details: Rattus norvegicus, po, 1 hour before antigen challenge
Protocol: (2) Inhibitory effect on experimental asthma in rats: This test was carried out by the method of Church and Miller [cf. Brit. […] Male Wistar rats (200-250 g) were sensitized by an intraperitoneal injection of 1 ml of a 0.01% egg albumin solution containing 1 mg of Al(OH)3. Two weeks later, the rats were anesthetized with 1.3 g/kg of urethane. The trachea and jugular vein were cannulated. Respiratory volume and velocity were measured by attaching one end of the tracheal cannula to respiratory volume meter connected to a carrier amplifier and an integrator. The rats were challenged by an intravenous injection of 4 mg/kg of egg ablumin 30 minutes after the anesthesia. Test compounds, dissolved or suspended in a 0.5% aqueous tragacanth solution, were administered orally 1 hour before the antigen challenge. Each group of 4 rats was used for each dose of the test compound. ED50 values were calculated from the best fit linear regression line of inhibitory rates of respiratory volume and velocity in each dose.

[2] = target: T1, 5-lipoxygenase (Cavia porcellus, UniProt A0A286X958); experiment: Inhibitory effect on 5-lipoxygenase activity in guinea pig leukocytes; format: biochemical, guinea pig (male Hartley); details: read-out: 5-Lipoxygenase inhibit. activity, Inhibition
T1 construct: The cytosol fraction of peritoneal exudate cells from male Hartley guinea pigs (400-700 g) was used as 5-lipoxygenase; from tissue; host or cells: cytosol fraction of peritoneal exudate cells (leukocytes) of male Hartley guinea pigs
T1 sequence (A0A286X958 1-674): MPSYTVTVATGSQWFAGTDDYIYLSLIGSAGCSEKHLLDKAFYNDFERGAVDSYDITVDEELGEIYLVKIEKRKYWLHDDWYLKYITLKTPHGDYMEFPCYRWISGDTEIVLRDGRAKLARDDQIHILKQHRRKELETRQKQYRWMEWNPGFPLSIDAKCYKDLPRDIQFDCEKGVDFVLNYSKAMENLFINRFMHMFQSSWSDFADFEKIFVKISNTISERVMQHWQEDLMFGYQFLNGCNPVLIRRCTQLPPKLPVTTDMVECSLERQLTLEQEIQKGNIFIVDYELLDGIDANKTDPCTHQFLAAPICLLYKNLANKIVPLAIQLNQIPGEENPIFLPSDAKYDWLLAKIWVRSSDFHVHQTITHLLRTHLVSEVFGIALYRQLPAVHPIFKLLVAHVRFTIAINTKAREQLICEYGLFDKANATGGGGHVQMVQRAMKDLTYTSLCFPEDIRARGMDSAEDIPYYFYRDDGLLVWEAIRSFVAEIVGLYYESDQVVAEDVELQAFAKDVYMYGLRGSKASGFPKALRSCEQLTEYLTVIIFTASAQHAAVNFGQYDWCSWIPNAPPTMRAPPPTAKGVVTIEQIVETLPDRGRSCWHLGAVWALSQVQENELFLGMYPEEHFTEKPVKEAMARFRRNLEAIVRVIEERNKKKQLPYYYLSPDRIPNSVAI
Protocol: (1) Inhibitory effect on 5-lipoxygenase activity in guinea pig leukocytes:
This test was carried out by the method of Miyamoto and Obata (cf. "Perspectives in Prostaglandin Research," ed. by Y. Shiokawa et al., Excepta Medica, Amsterdam-Oxford-Princeton, 1983, p78) with minor modifications.
The cytosol fraction of peritoneal exudate cells from male Hartley guinea pigs (400-700 g) was used as 5-lipoxygenase. The standard reaction mixture contained 50 mM potassium phosphate buffer, 1 mM CaCl2, 1 mM glutathione, 1 mM adenosine triphosphoric acid, 10 μM indomethacin and the enzyme. The mixture was incubated for 5 minutes at 30° C. after addition of [1-^14 C]arachidonic acid (0.02 μCi). The reaction was terminated by addition of 0.6 ml of the cold organic solvents (diethyl ether/methanol/0.2M citric acid=30/4/1). The organic layer (300 μl) was applied onto a precoated silica gel 60F254 glass plate (E. Merck, West Germany). Radioactivity on the plate was monitored by a radiochromatogram scanner (Packard, U.S.A.). 5-Lipoxygenase activity was calculated according to the following equation. [formula]
The effects of the test compounds were expressed in terms of percent inhibition.

[3] = test system: histamine-induced contraction of isolated guinea pig trachea; experiment: Inhibitory effect on histamine-induced contraction of isolated guinea pig trachea; parameters: species or system guinea pig (male Hartley)
Protocol: (2) Inhibitory effect on histamine-induced contraction of isolated guinea pig trachea:
Male Hartley guinea pigs (400-700 g) were used. Zig-zag strips of guinea pig trachea were prepared by the method of Emmerson and Mackay [cf. J. Pharm. […] Dose-response curves for histamine were obtained before and 5 minutes after the addition of test compounds. Inhibitory rate was calculated from contraction heights in 3×10^-5 M of histamine without vs. with test compound.

[4] = test system: human basophils; experiment: Inhibitory effect on histamine release induced by anti-human IgE antibody from healthy human basophils; format: cell-based
Protocol: (3) Inhibitory effect on histamine release induced by anti-human IgE antibody from healthy human basophils:
Basophils from nonallergic volunteers were collected by the method of Levy and Osler [cf. […] The cells were washed once with a cold Tris-A buffer at pH 7.4 (25 mM Tris, 120 mM NaCl, 5 mM KCl and 0.03% human serum albumin) containing 4 mM EDTA and twice with Tris-A buffer. After washing, the cells were resuspended at 5-10×10^6 leukocytes/ml in Tris-ACM buffer at pH 7.6 (Tris-A buffer, 0.6 mM CaCl2 and 1 mM MgCl2). One ml of the cell suspension was incubated with 0.1 ml of a solution of test compound or vehicle for 15 minutes at 37° C., and then for further 45 minutes with 0.1 ml of anti-human IgE antibody. After ice-cooling, the reaction mixtures were centrifuged at 1,200 rpm for 8 minutes at 4° C. The supernatant fluids and the cells were analysed separately for histamine by a modification of the spectrophotofluorometric technique of Shore et al. [cf. […] Histamine release rate was calculated according to the following equation. [formula] A: total histamine (supernatant+cell) B: supernatant histamine without anti-IgE
C: supernatant histamine with anti-IgE
Inhibitory rate was calculated from histamine release rates without vs. with test compound.

[5] = Acute lethal toxicity in mice; details: mouse, in vivo; oral, mortality observed for two weeks
Protocol: Test 3 Acute lethal toxicity in mice
Test compounds were suspended in a 0.5% aqueous tragacanth solution. LD50 values were calculated according to the method of Litchfield and Wilcoxon [cf. J. Pharmacol. Exp. Ther., 96, 99 (1949)].

[6] = compared with ketotifen fumarate

Cc1ccc(C=CC(=O)NCCCCN2CCN(C(c3ccccc3)c3ccccc3)CC2)cn1 [Example 2, N-[3-(6-methyl-3-pyridyl)acryloyl]-4-(4-diphenylmethyl-1-piperazinyl)butylamine]
ED50 ([1]; respiratory velocity, read-out: ED50, respiratory velocity): 5.5 mg/kg
ED50 ([1]; respiratory volume, read-out: ED50, respiratory volume): 14.4 mg/kg
inhibition at 30 µM ([2]; 3 × 10^-5 M): 87.2%
inhibition at 10 µM ([2]; 10^-5 M): 45.7%
IC50 ([3]; 3×10^-5 M histamine, isolated guinea pig trachea, read-out: Anti-hist. activity IC50): 1.1 µM
antihistamine activity (in words) [3, 6]: potent antihistamine activity, though fairly inferior to that of ketotifen fumarate
IC50 ([4]; anti-human IgE antibody, human basophils, read-out: Histamine release inhibit. IC50): 34 µM
ability to inhibit histamine release (in words) [4, 6]: superior to ketotifen fumarate in the ability to inhibit histamine release
LD50 at 336 h [5]: 601 mg/kg

From patent US4778796A, “ω-(3-pyridyl)alkenamide derivatives and anti-allergenic pharmaceutical compositions containing same” (Dainippon Pharmaceutical Co., Ltd., priority 1985, dated 1988)
